{"source": "patent US20070184021A1", "about": "“Use of caspase inhibitors as a therapeutic agent against radiation-induced injury” (priority 2002, published 2007)", "key": {"Lin− Sca1− c-kit+ cells": {"system": "Lin− Sca1− c-kit+ cells", "assay": "Apoptosis assay, annexin V/7-AAD flow cytometry of irradiated Lin- cells, progenitor gate", "assay_type": "cell-based, mouse", "description": "(§1) Isolation of lineage negative hematopoietic (Lin) cells: BM mononuclear cells were incubated with biotin-conjugated rat antibodies specific for murine CD5, Mac-1, CD45R/B220, Ter-119 and Gr-1. The labeled mature lymphoid and myeloid cells were removed twice after they were incubated with goat anti-rat IgG paramagnetic beads (Dynal Inc, Lake Success, N.Y.) at a bead:cell ratio of approximately 4:1 and exposed to a magnetic field. The isolated Lin- cells were washed twice with 2% FCS/HBSS and resuspended in complete medium (RPMI1640 medium with 10%FCS, 200 mM L-glutamine and 100 U/ml penicillin and streptomycin) at 1×10^6/ml.\n(§2) Ionizing radiation (IR). Aliquots of 2 ml of Lin- cells (1×10^6/ml in complete medium) were placed into a cell culture tube and exposed to 4 Gy IR on a rotating platform in a Mark IV^137Cesium gamma-irradiator (JL Shepherd, Glendale, Calif.) at a dose rate of 1.21 Gy/min.\n(§3) Apoptosis assays. Lin^− cells (1×10^6/ml in complete medium) were exposed to 4 Gy IR or non-irradiated (Control). They were incubated in wells of a 24-well plate at 37° C., 5% CO2 and 100% humidity for 6 or 18 h. For z-VAD treatment studies, the cells were pre-incubated with vehicle (0.2% DMSO) or 100 μM z-VAD for 1 h prior to IR exposure, or they were treated with z-VAD immediately before or 30 min, 1 h, 2 h or 4 h after IR exposure. After 6 or 18 h incubation, 0.5 ml cells ([…]) were washed once with 1 ml 0.1% BSA/PBS. The cells were centrifuged for 5 min, 350× g at 4° C. Next, the cells were incubated with anti-CD16/32 at 4° C. for 15 min to block the Fcγ receptors and then stained with Sca-1-PE and c-kit-APC antibodies for 20 min at 4° C. in the dark. The cells were washed twice with 1 ml 0.1% BSA/PBS, centrifuged for 5 min, 350× g at RT. Next, 100 μl 1× binding buffer (10 mM HEPES, pH 7.4, 140 mM NaCl, and 2.5 mM CaCl2) was added to the pellet along with 3 μl Annexin V-FITC (Pharmingen, San Diego, Calif.) and 5 μl 7-AAD (10 μg/ml, from Molecular Probes, Eugene, Oreg.). The cell suspension was gently mixed and incubated for 15 min at room temperature. The cells were diluted in 400 μl 1× binding buffer immediately prior to subjection of FACS analysis. In all experiments, PE and APC isotype controls and FITC and 7-AAD positive controls were included as appropriate. Two or four-color flow cytometric analyses were performed using a FACS Caliber (Becton Dickinson, San Jose, Calif.)."}, "mouse BM cells": {"system": "mouse BM cells", "assay": "Cobblestone area-forming cell (CAFC) assay of irradiated BM cells", "assay_type": "cell-based", "details": "100 μM z-VAD 1 h prior to 4 Gy IR", "description": "FIGS. 8A-B. z-VAD partially protects HSC from IR-induced suppression of hematopoietic function. BM cells were pre-incubated with vehicle or 100 μM z-VAD for 1 h and then were exposed to 4 Gy IR. BM cells without IR were used as control. Six hours after the IR, the cells were overlaid on FBMD-1 stromal cell layers. The frequency of CAFC was determined on 7, 14, 21, 28 and 35 days after IR. FIG. 8A—Frequency of CAFC. FIG. 8B—Survival fraction of CAFC as compared to that of control cells. The data presented are mean +/− SEM (n=3 individual mice/groups). Vehicle/IR vs z-VAD/IR, p<0.01 by ANOVA.\nz-VAD protects HSC from IR-induced suppression of hematopoietic function. To determine if inhibition of IR-induced HSC apoptosis by z-VAD preserves their hematopoietic function, mouse BM cells were pre-incubated with vehicle (0.2% DMSO) or z-VAD (100 μM) one hour prior to exposure to IR (4 Gy). The hematopoietic function of these cells were analyzed by cobblestone area-forming cell (CAFC) assay (Ploemacher et al., 1989). This in vitro assay provides an estimate of the hematopoietic function of a spectrum of CAFC day-types that correspond to CFU-granulocyte macrophage (CFU-GM) (CAFC day 7), CFU-spleen (CFU-S) day-12 (CAFC day 14), and the primitive HSC with long-term repopulating ability (CAFC day 28-35) (Ploemacher et al., 1989)."}, "Lin− Sca1+ c-kit+ cells": {"system": "Lin− Sca1+ c-kit+ cells", "assay": "Apoptosis assay, annexin V/7-AAD flow cytometry of irradiated Lin- cells, HSC gate", "assay_type": "cell-based, mouse", "details": "for IR-induced apoptosis: 4 Gy", "description": "as §1, §2, §3"}, "Male C57BL/6 mice": {"system": "Male C57BL/6 mice", "assay": "Protection of mice from IR-induced lethality", "assay_type": "in vivo, mouse", "description": "FIG. 9. z-VAD protects mice from IR-induced lethality. Male C57BL/6 mice were given two i.p. injections of vehicle (0.25 ml PBS with 0.2% DMSO) or z-VAD (6 mg/kg) at one hour prior to and 5 h after exposure to a lethal dose of IR (10.5 Gy). The survival of these mice was monitored daily up to 24 days after exposure to IR. n=6 mice/group).\nz-VAD protects mice from IR-induced lethality. Finally, the inventors examined if z-VAD acts as a radioprotectant to protect mice from IR-induced death. Male C57BL/6 mice were given two i.p. injections of vehicle (0.25 ml PBS with 0.2% DMSO) or z-VAD (6 mg/kg) at one hour prior to and 5 h after exposure to a lethal dose of IR (10.5 Gy). […] In contrast, 50% mice receiving z-VAD injections remain alive up to today (24 days) after IR."}, "[1]": {"details": "100 μM z-VAD 1 h prior to 4 Gy IR"}, "[2]": {"details": "100 μM z-VAD 1 h prior to 4 Gy IR, 6 and 18 h post IR"}}, "note": "Residues, ends and D or L forms follow the SMILES beside them. *: point of attachment. Cbz = O=C(OCc1ccccc1)*; CH2F = FC*"}
{"smiles": "COC(=O)C[C@H](NC(=O)[C@H](C)NC(=O)[C@@H](NC(=O)OCc1ccccc1)C(C)C)C(=O)CF", "note": "[z-VAD, Z-Val-Ala-Asp (OCH3)-Fluoromethylketone, methyl ester] (Cbz-Val-Ala-Asp(OMe)-CH2F)", "values": [{"measurement": "necrotic cell death (7-AAD+ cells)", "setting": "Lin− Sca1− c-kit+ cells; [1]", "value": "did not lead to an increase"}, {"measurement": "IR-induced apoptosis (annexin V+ and annexin V+/7-AAD+ cells)", "setting": "Lin− Sca1− c-kit+ cells; 100 μM z-VAD 1 h prior to 4 Gy IR, 6 and 18 h after IR", "value": "attenuated"}, {"measurement": "IR-induced reduction of cell numbers", "setting": "Lin− Sca1− c-kit+ cells; [2]", "value": "only partially protected"}, {"measurement": "numbers of cells as percentage of un-irradiated control cells", "setting": "Lin− Sca1− c-kit+ cells; 100 μM z-VAD 1 h prior to 4 Gy IR, 18 h post IR", "value": "about 29%"}, {"measurement": "IR-induced apoptosis, compared with the effect in Lin− Sca1+ c-kit+ cells", "setting": "Lin− Sca1− c-kit+ cells; 100 μM z-VAD given -1 h to 4 h relative to 4 Gy IR", "value": "to a less extent"}, {"measurement": "CAFC frequency and survival fraction vs vehicle-treated cells exposed to IR", "setting": "mouse BM cells; p<0.01", "value": "significantly increased"}, {"measurement": "survival fraction of CAFC relative to vehicle-treated cells", "setting": "mouse BM cells; CAFC day 7-35", "value": "about 2 fold"}, {"measurement": "survival fraction of CAFC", "setting": "mouse BM cells; CAFC day 7", "value": 0.211}, {"measurement": "survival fraction of CAFC", "setting": "mouse BM cells; CAFC day 14", "value": 0.058}, {"measurement": "survival fraction of CAFC", "setting": "mouse BM cells; CAFC day 21", "value": 0.148}, {"measurement": "survival fraction of CAFC", "setting": "mouse BM cells; last value of the list, CAFC day 28 or 35 (four values printed for five days)", "value": 0.453}, {"measurement": "necrotic cell death (7-AAD+ cells)", "setting": "Lin− Sca1+ c-kit+ cells; [1]", "value": "did not lead to an increase"}, {"measurement": "IR-induced reduction of cell numbers", "setting": "Lin− Sca1+ c-kit+ cells; [2]", "value": "completely prevented"}, {"measurement": "IR-induced apoptosis (annexin V+ and annexin V+/7-AAD+ cells)", "setting": "Lin− Sca1+ c-kit+ cells; 100 μM z-VAD 1 h prior to 4 Gy IR, 6 h after IR", "value": "significantly inhibited"}, {"measurement": "IR-induced apoptosis (annexin V+ and annexin V+/7-AAD+ cells)", "setting": "Lin− Sca1+ c-kit+ cells; 100 μM z-VAD 1 h prior to 4 Gy IR, 18 h after IR", "value": "completely protected"}, {"measurement": "IR-induced apoptosis", "setting": "Lin− Sca1+ c-kit+ cells; 100 μM z-VAD given at 4 h post IR", "value": "only partially inhibited"}, {"measurement": "IR-induced apoptosis", "setting": "Lin− Sca1+ c-kit+ cells; 100 μM z-VAD given prior to IR (-1 h) or up to 2 h post IR", "value": "abrogated"}, {"measurement": "mice alive after IR", "setting": "Male C57BL/6 mice; z-VAD 6 mg/kg i.p. 1 h prior to and 5 h after 10.5 Gy IR, 24 days after IR, n=6", "value": 50, "unit": "%"}, {"measurement": "protection from IR-induced death", "setting": "Male C57BL/6 mice; z-VAD 6 mg/kg i.p. twice, 1 h prior to and 5 h after 10.5 Gy IR", "value": "protected half"}]}
